Assay results: US20060127890A1, “Novel gene overexpressed in heart and skeletal muscle and use thereof” (priority 2000, published 2006)

System: rat 187-2 gene
Assay: Expression analysis of the rat 187-2 gene in H9c2 cells by TaqMan PCR upon norepinephrine stimulation
Format: cell-based
Settings: serum-free DMEM, norepinephrine 10 nM or 100 nM, after 4 and 8 hours, corrected on G3PDH, versus absence of norepinephrine
Method: H9c2 cells are a cell strain derived from rat myocardial cells, and were purchased from ATCC. The cells were cultured in DMEM medium containing 10% bovine serum, and the cells were recovered using trypsin, inoculated at a density of 100000 cells/well of a 12-well plate and cultured for 12 hours in DMEM medium containing 10% bovine serum. Thereafter, the medium was exchanged with serum-free DMEM, and 10 nM norepinephrine was added at a concentration of 10 nM or 100 nM to the medium, and after 4 and 8 hours, the amount of the rat 187-2 gene expressed was quantified by TaqMan PCR.

## NC[C@H](O)c1ccc(O)c(O)c1 [norepinephrine]
  amount of the rat 187-2 gene expressed (maximum level): about twice that in the absence of norepinephrine
